Data reported in patent US20240325340A1, “ISOFORM SPECIFIC AGONISTS TARGETING AKT KINASE” (Thomas Jefferson University, priority 2021, published 2024).
“Also recorded” adds a separate entry of the source. Each block holds one molecule with its values, some of them ahead of it.

Legend:
[1] = system: Akt; assay: Ceramide and cathepsin G blockade of insulin activation of Akt in H9C2 myoblasts; format: cell-based
Method: (§1) H9C2 myoblasts or neonatal rat myocytes were treated with neutrophil protease Cathepsin G (0.01 U/mL), 4 hr or with 100 μM C2-Ceramide (100 μM), 2 hr. Then cells were stimulated with insulin with or without 30 μM T625 for 30 minutes. Lysates were immunoblotted with the indicated antibodies.

[2] = biological target: recombinant pAkt1 (Homo sapiens, UniProt P31749); assay: Recombinant phospho-Akt dephosphorylation by PP2A or total cellular phosphatase extracts (immunoblot pT308); format: biochemical; conditions: 30 minutes at 30° C.
recombinant pAkt1, sequence (P31749 whole entry): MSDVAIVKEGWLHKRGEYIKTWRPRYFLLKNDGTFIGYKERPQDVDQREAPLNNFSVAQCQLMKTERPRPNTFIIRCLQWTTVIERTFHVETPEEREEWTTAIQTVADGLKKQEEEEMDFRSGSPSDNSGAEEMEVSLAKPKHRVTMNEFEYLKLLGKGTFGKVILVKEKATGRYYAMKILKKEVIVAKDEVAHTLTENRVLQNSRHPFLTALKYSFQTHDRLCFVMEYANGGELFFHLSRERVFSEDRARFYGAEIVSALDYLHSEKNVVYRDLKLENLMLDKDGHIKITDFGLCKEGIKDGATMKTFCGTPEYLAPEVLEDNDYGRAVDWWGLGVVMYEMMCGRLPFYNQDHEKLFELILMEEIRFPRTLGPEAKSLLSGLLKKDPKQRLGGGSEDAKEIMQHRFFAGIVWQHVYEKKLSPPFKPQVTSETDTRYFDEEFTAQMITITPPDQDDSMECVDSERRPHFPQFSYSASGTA
Method: FIG. 1A: Recombinant phospho-Akt (50 ng) were pre-mixed with DMSO or with 40 μM 4H-Chromenes with carboxylate side chain (SC-79 and HA-14) or with 60 μM malononitrile side chain (T625) at 4° C. Then recombinant PP2A (70 ng PP2A-C) or total cellular phosphatase extracts were added and incubated for 30 minutes at 30° C. After incubation, protein extracts were subjected to immunoblot analysis using antibodies detecting phosphorylated Akt (T308), total Akt and PP2A catalytic subunit. FIG. 1B comprises a graph showing the percentage of Akt dephosphorylation at 30 minutes (Dephos. %) (n=6) *P<0.01 vs. DMSO.

[3] = Compound stability; format: physicochemical
[4] = system: cells; assay: Cellular toxicity (cells not specified); format: cell-based
[5] = cited from earlier work
[6] = system: Akt; assay: Aerosolized inhalation (FlexiVent) Akt activation in mouse lung; format: in vivo
Method: 8 week old (wk) wild type mice were deprived of food overnight. Anesthetized mice were intubated on the FlexiVent system and challenged with aerosolized inhaled insulin or T625 as indicated. Lung tissue was harvested 20 minutes after drug inhalation. Extracts were immunoblotted with indicated antibodies.
(§2) A FlexiVent system (SCIREQ) was used to deliver Akt activator, T625, directly to mouse lung. This procedure closely mimics the clinical application of inhaled insulin. […] Akt activators were also administered in the setting of mouse cardiac ischemia-reperfusion injury model (FIGS. 13A-13C). T625 was directly injected into the left ventricular free wall at the time of ischemic ligation of exteriorized heart. Also, to mimic clinical use, (IP) Akt activators were intraperitoneally injected within 10 min after ischemia initiation. It was shown that both directly applied and intraperitoneally injected Akt activators activated Akt in the heart. Finally, a splinted murine excisional wound model that mimic human wound healing was used. Akt activators were placed directly into the wound ring, mimicking the clinical topical application of growth factors.

[7] = biological target: T1, Akt2-LT WT (Homo sapiens, UniProt P31751); assay: Phosphorylation of heterologously expressed Akt2-LT WT in H9C2 myoblasts; format: cell-based; conditions: serum-free media, 2 hr
T1 construct: expressed in transfected cells; host or cells: H9C2 myoblasts
T1 sequence (P31751 whole entry): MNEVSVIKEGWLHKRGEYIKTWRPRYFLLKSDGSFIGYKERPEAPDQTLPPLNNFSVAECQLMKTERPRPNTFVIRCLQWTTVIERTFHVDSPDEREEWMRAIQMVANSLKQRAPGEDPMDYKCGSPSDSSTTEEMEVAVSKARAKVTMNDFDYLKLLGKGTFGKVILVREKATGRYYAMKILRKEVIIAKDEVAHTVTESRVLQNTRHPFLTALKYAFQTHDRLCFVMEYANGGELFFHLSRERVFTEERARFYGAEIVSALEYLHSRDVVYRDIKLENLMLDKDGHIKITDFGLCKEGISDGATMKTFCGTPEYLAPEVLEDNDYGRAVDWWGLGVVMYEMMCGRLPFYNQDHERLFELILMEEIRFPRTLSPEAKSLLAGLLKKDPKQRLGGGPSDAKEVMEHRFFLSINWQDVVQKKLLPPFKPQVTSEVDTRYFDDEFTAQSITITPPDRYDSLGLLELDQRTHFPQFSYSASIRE
Method: FIGS. 2A-2B: illustrate the finding that T625's position 6 analogues differentially activate Akt and induce cellular toxicity. FIG. 2A: To distinguish heterologous-expressed Akt from endogenous Akt, a 41 amino acid large tag containing the HA-epitope was fused with wild type Akt2 (Akt2-LT WT). H9C2 myoblasts over-expressing Akt2-LT WT were treated with insulin or indicated compounds in serum-free media for 2 hr. Phosphorylation of T309 and total Akt2 are shown. FIG. 2B: Cell images show A549 AT2 cell morphology after 24 hr of drug treatment.

[8] = system: Akt; assay: Mouse cardiac ischemia-reperfusion injury model, Akt activation in heart; format: in vivo; conditions: directly injected or intraperitoneally injected after ischemic-ligation
Method: FIG. 13A: A schematic of ischemic-reperfusion procedure indicating drug injection time and heart harvest time. FIG. 13B: Illustrates immunoblots of pS473, Akt phospho-substrate, pPRAS40 and GAPDH in the WES auto-western system. After ischemic-ligation, T625 (0.8 μg in 20 μl PBS) were directly injected at three spots of exposed ventricular wall. Injected insulin was used as a control. FIG. 13C: Illustrates immunoblots of pT308, total Akt (tAkt) and GAPDH and quantified pT308/tAkt ratio. After ischemic-ligation, T620 and T625 were directly injected or intraperitoneally injected.
as §2, with “Akt activators were placed directly into the wound ring, mimicking the clinical topical application of growth factors.” left out

[9] = system: E17-Y18-I19 and R23-R25 mutated Akt kinase (Akt1-LT); assay: pT308 phosphorylation of mutated Akt1-LT constructs in H9C2 cells; format: cell-based; conditions: 2 μM insulin 15 minutes
Text: FIGS. 3A-3D: illustrate a model of T625 C-6 interaction space within the Akt PH domain and biochemical validation of the model. FIG. 3A: Model of the Akt2 PH-domain bound to T625 where all residue numbering corresponds to the Akt2 sequence. The C-6 Cl group act as the most optimal structural mimetic of the phosphate's electrostatic interactions with Arg23 and surrounding residues. […] To distinguish heterologous-expressed Akt from endogenous Akt, a 41 amino acid large tag containing the HA-epitope was fused with Akt1 (Akt1-LT) and specific mutations were created by site-directed mutagenesis. H9C2 cells expressing the indicated mutant constructs were stimulated for 15 minutes with 2 μM insulin, then switch to serum-free medium with 30 μM T625 as indicated for 60 minutes. […] H9C2 cells expressing the indicated mutant constructs were stimulated for 15 minutes with 2 μM insulin, then switch to serum-free medium with 20 μM T625 as indicated for 90 minutes. Phosphorylation of T308 in Akt1-LT and endogenous Akt, HA and GAPDH loading control blots are shown. FIG. 3D: Graph of specific pT308 phosphorylation in the indicated Akt1-LT constructs with or without T625 treatment. N is indicated.

[10] = system: Akt; assay: Ceramide and cathepsin G blockade of insulin activation of Akt in neonatal rat myocytes; format: cell-based; conditions: 30 μM T625 with insulin, 30 minutes
Method: as §1

[11] = system: Akt; assay: Akt activation (phospho-T308, p-PRAS40) in human epithelial cells (Hacat); format: cell-based; conditions: for efficacy in Akt activation compared to RA97 / length of action in Akt activation compared to RA97 / phosphorylation of Akt substrate PRAS40: 40 μM, serum-starved Hacat; for efficacy in Akt activation compared to RA97 / length of action in Akt activation compared to RA97: 2 hr, 4 hr or 24 hr; for synergy with FBS in Akt activation: 10 μM or 20 μM with 0.25% fetal bovine serum; for synergy with FBS in Akt activation / Akt activation at low dose (phospho-T308): Hacat; for synergy with FBS in Akt activation / Akt activation at low dose (phospho-T308) / phosphorylation of Akt substrate PRAS40: 6 hr; for Akt activation at low dose (phospho-T308): 10 μM or 20 μM
Method: FIGS. 6A-6D illustrate immunoblots for Akt activators converted from non-PAINS Akt antagonists. FIG. 6A: 40 μM of each compound derived from sulfonamides, di-tert butylphenols, or pyridines were incubated in human epithelial cells (A549) for 2.5 hr. Lysates were probed for phospho-T308 and total Akt (tAkt) using ProteinSimple WES digital western system. Insulin was uses as positive control. […] 40 μM of each compound was incubated in serum-starved human epithelial cells (Hacat) for 2 hr, 4 hr, or 24 hr as indicated. Cell lysates were probed for phospho-T308 and total Akt (tAkt). […] 10 μM or 20 μM of T775 or T776 were incubated with or without 0.25% fetal bovine serum (FBS) medium in human epithelial cells (Hacat) for 6 hr. Cell lysates were probed for phospho-T308, total Akt (tAkt), and GAPDH. […] 40 μM of each compound was incubated in serum-starved human epithelial cells (Hacat) for 6 hr. Cell lysates were probed for phospho-T308, total Akt (tAkt), Akt substrate, p-PRAS40, and GAPDH.

[12] = system: A549 cells; assay: Cytotoxicity by release of lactate dehydrogenase (LDH) in A549 cells; format: cell-based, human; conditions: 40 μM, 24 hours, serum-free media
Method: Cytotoxicity was determined by the release of lactate dehydrogenase (LDH) into cell culture media. A549 cells were incubated with 40 μM of each compound for 24 hours in serum-free media (n=3 for each compound). FIG. 8B: A visual assessment of cell morphology after 24 hrs treatment with 40 μM of each compound in serum-free media. 100× images are shown.

[13] = system: Hacat cells; assay: Cellular toxicity / cell morphology in Hacat cells after 24 hrs; format: cell-based, human; conditions: 40 μM

Molecule: CCCCCCCCCCCCC/C=C/[C@@H](O)[C@H](CO)NC(C)=O [C2-ceramide, reference compound]
block of insulin activation of Akt ([1]; 100 μM, 2 hr): block insulin activation of Akt

compound stability [3]: highly labile
Molecule: CCOC(=O)C1=C(N)Oc2ccc(Br)cc2C1C(C#N)C(=O)OCC (centres unmarked) [HA14]
block of recombinant pAkt1 dephosphorylation by PP2A and cellular phosphatases ([2]; 40 μM compound): enhance intrinsic resistance of the Akt kinase to dephosphorylation; also recorded: block recombinant pAkt1 dephosphorylation by PP2A and cellular phosphatases | cellular toxicity [4]: toxic to cells

compound stability [3]: highly labile
Molecule: CCOC(=O)C1=C(N)Oc2ccc(Cl)cc2C1C(C#N)C(=O)OCC (centres unmarked) [SC79]
block of recombinant pAkt1 dephosphorylation by PP2A and cellular phosphatases ([2]; 40 μM compound): enhance intrinsic resistance of the Akt kinase to dephosphorylation; also recorded: block recombinant pAkt1 dephosphorylation by PP2A and cellular phosphatases | cellular toxicity [4]: toxic to cells

Molecule: CC(C)(Sc1cc(C(C)(C)C)c(O)c(C(C)(C)C)c1)Sc1cc(C(C)(C)C)c(OC(=O)CCC(=O)O)c(C(C)(C)C)c1 [Succinobucol]
insulin sensitivity ([5]; literature): improve insulin sensitivity | drug safety ([5]; numerous clinical trials of specific diabetic patient populations): established drug safety record

compound stability [3]: enhanced compound stability
Molecule: N#CC1=C(N)Oc2ccc(Cl)cc2C1C(C#N)C#N (centres unmarked) [T625, 2-(2-amino-6-chloro-3-cyano-4H-chromen-4-yl)propanedinitrile]
Akt kinase activation in mouse lung ([6]; 60 μg, delivered directly to mouse lung by FlexiVent): retaining Akt activation; also recorded: robustly activated Akt kinase in mouse lung | insulin sensitivity in vivo ([6]; aerosolized inhaled, lung tissue harvested 20 minutes after inhalation): enhanced insulin sensitivity | Akt activation in mouse lung tissue in combination with insulin ([6]; suboptimal dose 15 μg with suboptimal insulin dose 5 μg): cooperated with suboptimal insulin dose (5 μg) to activate Akt in mouse lung tissue | Akt activation in cells (phosphorylation of T309 of Akt2-LT WT) [7]: retaining Akt activation; also recorded: activate Akt | block of recombinant pAkt1 dephosphorylation by PP2A and cellular phosphatases ([2]; 60 μM compound): block recombinant pAkt1 dephosphorylation by PP2A and cellular phosphatases | Akt activation in mouse heart during ischemia-reperfusion [8]: enhanced Akt activation in mouse heart | effect on phosphorylation of mutated Akt kinase ([9]; E17-Y18-I19 and R23-R25 mutants, then 30 μM T625 60 minutes): acts as an inhibitor | effect on phosphorylation of mutated Akt kinase ([9]; mutations in E17 and/or 119, then 20 μM T625 90 minutes): converting the T625 response from activation to inhibition | rescue of ceramide and cathepsin G blockade of Akt activation by insulin ([1]; H9C2 myoblasts, 30 μM T625 with insulin, 30 minutes): rescues ceramide and cathepsin G blockade of Akt activation | rescue of ceramide and cathepsin G blockade of Akt activation by insulin [10]: rescues ceramide and cathepsin G blockade of Akt activation | cellular toxicity [4]: dramatically reduced cellular toxicity

Molecule: CCCc1nc2ccc(Cl)cc2c(-c2ccccc2)c1C(=O)OCC [T748, ethyl 6-chloro-4-phenyl-2-propylquinoline-3-carboxylate]
efficacy in Akt activation compared to RA97 [11]: improved efficacy | length of action in Akt activation compared to RA97 [11]: improved length of action | toxicity compared to RA97 [4]: lack of toxicity

Molecule: CCCc1nc2ccc(Cl)cc2c(CCC(=O)OCC)c1C(=O)OCC [T775, ethyl 6-chloro-4-(3-ethoxy-3-oxopropyl)-2-propylquinoline-3-carboxylate]
synergy with FBS in Akt activation [11]: synergize with FBS | Akt activation at low dose (phospho-T308) [11]: activate Akt | efficacy in Akt activation compared to RA97 [11]: improved efficacy | length of action in Akt activation compared to RA97 [11]: improved length of action | phosphorylation of Akt substrate PRAS40 [11]: phosphorylated Akt substrate, PRAS40 | cellular toxicity (LDH release) [12]: failed to show significant cellular toxicity | cellular toxicity [13]: failed to show significant cellular toxicity | toxicity compared to RA97 [4]: lack of toxicity

Molecule: CCOC(=O)CCc1c(C(=O)OCC)c(C(C)(C)C)nc2ccc(Cl)cc12 [T776, ethyl 2-tert-butyl-6-chloro-4-(3-ethoxy-3-oxopropyl)quinoline-3-carboxylate]
synergy with FBS in Akt activation [11]: synergize with FBS | Akt activation at low dose (phospho-T308) [11]: activate Akt | efficacy in Akt activation compared to RA97 [11]: improved efficacy | length of action in Akt activation compared to RA97 [11]: improved length of action | phosphorylation of Akt substrate PRAS40 [11]: phosphorylated Akt substrate, PRAS40 | cellular toxicity (LDH release) [12]: failed to show significant cellular toxicity | cellular toxicity [13]: failed to show significant cellular toxicity | toxicity compared to RA97 [4]: lack of toxicity

B1: cathepsin G: neutrophil protease Cathepsin G (protein, UniProt P08311 21-244, looked up)
Cathepsin G: IIGGRESRPHSRPYMAYLQIQSPAGQSRCGGFLVREDFVLTAAHCWGSNINVTLGAHNIQRRENTQQHITARRAIRHPQYNQRTIQNDIMLLQLSRRVRRNRNVNPVALPRAQEGLRPGTLCTVAGWGRVSMRRGTDTLREVQLRVQRDRQCLRIFGSYDPRRQICVGDRRERKAAFKGDSGGPLLCNNVAHGIVSYGKSSGVPPEVFTRVSSFLPWIRTTMRS
block of insulin activation of Akt ([1]; 0.01 U/mL, 4 hr): block insulin activation of Akt
